Experiments:
[1] = system: pain hypersensitivity model rats; assay: Mechanical stimulation test (Dynamic Plantar Aesthesiometer), pain threshold of left plantar; format: in vivo; conditions: for maximum pain threshold after the administration: max pressure 15.0 g, measured 30, 60, 90 min after administration; for effect of administration on pain threshold (in words): intraperitoneal, versus 0.5 w/v % CMC-Na control, Dunnett's test
Method: (§1) As experimental animals, pain hypersensitivity model rats obtained by conducting complete ligation on L5/L6 spinal nerves of 6-week-old male rats were used.
(§2) Mechanical stimulation tests were carried out using Dynamic Plantar Aesthesiometer (37400, Ugo Basile), and thermal stimulation tests were carried out using a plantar thermal stimulation tester (Plantar Test 7370, Ugo Basile). The pain threshold of the feet of each model animal was measured, and the animals were divided into groups using Preclinical Package Version 5.0 (SAS Institute Japan), such that the pain thresholds are uniform among the groups as measured prior to administration on each day of the experiment.
(§3) The test substance was prepared as follows. The base material was ground with an agate mortar and a pestle, and 0.5 w/v % carboxyrnethylcellulose sodium (CMC-Na) as a medium was gradually added thereto to form a uniform suspension. The concentration of the liquid to be administered was adjusted with a graduated cylinder or a volumetric flask, only before use.
(§4) The purpose of administering the test substance is to ascertain the direct effect on spinal cord. Since the test substance had been confirmed to pass through the brain barrier, a simple intraperitoneal administration was used. The test substance in a volume of 5 ml/kg was intraperitoneally administered using a syringe barrel and a needle.
Groups each including five pain hypersensitivity model male rats (355.8 to 457.9 g) were used. Before administration of ICI182.780, and at 30 minutes, 60 minutes and 90 minutes after administration of ICI182.780, the pain threshold of the left plantar of each rat was measured using a stimulating apparatus which had been set such that the maximum pressure would be 15.0 g and the maximum pressure would be reached in 20 seconds.
Groups each including five pain hypersensitivity model male rats (290.3 to 354.8 g) were used. Before administration of 17β-estradiol, and at 30 minutes, 60 minutes and 90 minutes after administration of 17β-estradiol, the pain threshold of the left plantar of each rat was measured using a stimulating apparatus which had been set such that the maximum pressure would be 15.0 g and the maximum pressure would be reached in 20 seconds.
Groups each including five pain hypersensitivity model male rats (294.8 to 415.4 g) were used. Before administration of 17β-estradiol+ICI128.780, and at 30 minutes, 60 minutes and 90 minutes after administration of 17β-estradiol+ICI182.780, the pain threshold of the left plantar of each rat was measured using a stimulating apparatus which had been set such that the maximum pressure would be 15.0 g and the maximum pressure would be reached in 20 seconds.
Groups each including five pain hypersensitivity model male rats (333.7 to 408.3 g) were used. Before administration of fluocinolone acetonide, and at 30 minutes, 60 minutes and 90 minutes after administration of fluocinolone acetonide, the pain threshold of the left plantar of each rat was measured using a stimulating apparatus which had been set such that the maximum pressure would be 15.0 g and the maximum pressure would be reached in 20 seconds.
Groups each including five pain hypersensitivity model male rats (261.4 to 320.9 g) were used. Before administration of triamcinolone acetonide, and at 30 minutes, 60 minutes and 90 minutes after administration of triamcinolone acetonide, the pain threshold of the left plantar of each rat was measured using a stimulating apparatus which had been set such that the maximum pressure would be 15.0 g and the maximum pressure would be reached in 20 seconds.

[2] = system: pain hypersensitivity model rats; assay: Thermal stimulation test (plantar thermal stimulation tester), pain threshold of left plantar; format: in vivo; conditions: thermal stimulation intensity 35; for maximum pain threshold after the administration: measured 30, 60, 90 min after administration
Method: as §1, §2, §3, §4
Groups each including five pain hypersensitivity model male rats (282.0 to 452.4 g) were used. Before administration of 17β-estradiol+ICI128.780, and at 30 minutes, 60 minutes and 90 minutes after administration of 17β-estradiol+ICI182.780, the pain threshold of the left plantar of each rat was measured using a plantar thermal stimulating apparatus set to a thermal stimulation intensity of […].
Groups each including five pain hypersensitivity model male rats (320.0 to 449.6 g) were used. Before administration of fluocinolone acetonide, and at 30 minutes, 60 minutes and 90 minutes after administration of fluocinolone acetonide, the pain threshold of the left plantar of each rat was measured using a plantar thermal stimulating apparatus set to a thermal stimulation intensity of 35.

[3] = system: neuropathic pain model mice; conditions: J. Neurosci. 2004, 2005; cited from earlier work

SMILES	maximum pain threshold after the administration ([1]; 0.3 mg/kg intraperitoneal)	maximum pain threshold after the administration ([1]; 3 mg/kg intraperitoneal)	maximum pain threshold after the administration ([1]; 30 mg/kg intraperitoneal)	effect of administration on pain threshold (in words) [1]	maximum pain threshold after the administration ([2]; 0.3 mg/kg intraperitoneal)	maximum pain threshold after the administration ([2]; 3 mg/kg intraperitoneal)	maximum pain threshold after the administration ([2]; 10 mg/kg intraperitoneal)	effect of administration on pain threshold (in words) ([2]; intraperitoneal, versus 0.5 w/v % CMC-Na control)	maximum pain threshold after the administration ([1]; 10 mg/kg intraperitoneal)	analgesic action against neuropathic pain [3]
C[C@]12CC[C@@H]3c4ccc(O)cc4CC[C@H]3[C@@H]1CC[C@@H]2O [17β-estradiol]	8.1 g	9.4 g	10.4 g	significantly increased the pain threshold	–	–	–	–	–	–
C[C@]12CC[C@@H]3c4ccc(O)cc4C[C@@H](CCCCCCCCC[S+]([O-])CCCC(F)(F)C(F)(F)F)[C@H]3[C@@H]1CC[C@@H]2O (stereo partly drawn) [ICI182.780, 7α-17β-[9-[(4,4,5,5,5-pentafluoropentyl)sulphinyl]nonyl]estra-1,3,5(10)-trien-3,17-diol]	6.7 g	8.7 g	10.6 g	significantly increased the pain threshold	–	–	–	–	–	–
CC1(C)O[C@@H]2C[C@H]3[C@@H]4C[C@H](F)C5=CC(=O)C=C[C@]5(C)[C@@]4(F)[C@@H](O)C[C@]3(C)[C@]2(C(=O)CO)O1 [fluocinolone acetonide]	7.5 g	11.3 g	–	significantly increased the pain threshold	8.0 s	9.9 s	9.9 s	significantly increased the pain threshold	11.6 g	–
CC#C[C@]1(O)CC[C@H]2[C@@H]3CCC4=CC(=O)CCC4=C3[C@@H](c3ccc(N(C)C)cc3)C[C@@]21C [mifepristone]	–	–	–	–	–	–	–	–	–	exhibited an analgesic action against neuropathic pain
CC1(C)O[C@@H]2C[C@H]3[C@@H]4CCC5=CC(=O)C=C[C@]5(C)[C@@]4(F)[C@@H](O)C[C@]3(C)[C@]2(C(=O)CO)O1 [triamcinolone acetonide]	6.6 g	8.1 g	8.8 g	–	–	–	–	–	–	–

— patent US20090197842A1, “Therapeutic Agent for Neuropathic Pain” (JAPAN SCIENCE AND TECHNOLOGY CORPORATION, priority 2005, published 2009)
